Assay results from patent US8765786B2, “1-substituted indazole derivative” (Dainippon Sumitomo Pharma Co., Ltd., priority 2012, dated 2014).

The compounds below were run against T1, human α7 nAChR (Homo sapiens, UniProt P36544) (assay: Evaluation of PAM activity with human α7 nACh receptor stably expressing cells (aequorin luminescence, FDSS7000)). Details: result in words; ratio of RLU (Max-Min) to control wells, ACh EC20.
T1 construct: expressed in transfected cells; host or cells: GH4C1 cells derived from rat pituitary (ATCC CCL-82.2)
T1 sequence (P36544 23-502): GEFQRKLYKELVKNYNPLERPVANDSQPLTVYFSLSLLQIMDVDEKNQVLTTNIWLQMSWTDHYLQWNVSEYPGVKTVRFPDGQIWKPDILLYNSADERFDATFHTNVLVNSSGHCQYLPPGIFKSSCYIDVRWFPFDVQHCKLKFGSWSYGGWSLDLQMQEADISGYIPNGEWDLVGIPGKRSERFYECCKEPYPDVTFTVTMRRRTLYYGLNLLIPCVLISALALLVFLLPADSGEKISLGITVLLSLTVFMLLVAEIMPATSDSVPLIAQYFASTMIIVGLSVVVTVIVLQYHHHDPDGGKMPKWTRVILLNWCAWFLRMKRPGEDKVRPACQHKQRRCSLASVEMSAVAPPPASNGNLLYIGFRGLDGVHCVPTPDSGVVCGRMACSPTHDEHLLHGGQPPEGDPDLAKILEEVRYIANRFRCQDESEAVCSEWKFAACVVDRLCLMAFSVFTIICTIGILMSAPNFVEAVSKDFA
Type: cell-based
Description: Human α7 nAChR stably expressing cells were generated and cultured. In detail, GH4C1 cells derived from rat pituitary (cat#CCL-82.2, ATCC, USA) were used as a host cell. PcDNA3.1Zeo vector containing a nucleotide sequence encoding a protein GenBank BAC81731 and pcDNA3.1 vector containing human α7 nAChR gene (cat#V790-20, invitrogen, Carlsbad, Calif., USA) were transfected to the cells to give aequorins and human α7 nAChR stably expressing cells respectively. The aequorins and human α7 nAChR stably expressing cells were screened with Zeocin (cat#R25001, invitrogen, Carlsbad, Calif., USA) and Geneticin (cat #10131-027, invitrogen, Carlsbad, Calif., USA) respectively.
The cells were cultured in F-10 Nutrient Mixture (Ham) medium (cat #11550-043, invitrogen, Carlsbad, Calif., USA) containing 2.5% fetal bovine serum (cat #2917354, ICN Biomedicals, Inc, USA), 15% inactivated horse serum (cat #26050-088, invitrogen, Carlsbad, Calif., USA), 1 μg/mL Geneticin, and 5 μg/mL Puromycin (cat #14861-84, invitrogen, Carlsbad, Calif., USA), in a Collagen Type 1-coated dish (cat #4030-010, iwaki, Tokyo, Japan). During the culture, the medium was replaced with fresh medium in every 2 to 3 days, and the cells were treated with TrypLE Express (cat #45604-021, invitrogen, Carlsbad, Calif., USA) to collect them in every 7 days. Thus, the cells were subcultured.
7 Days after subculturing, the cells were treated with TrypLE Express to collect them when they were about 80% confluent. The cells were suspended in a reaction medium containing Hanks (cat #14065-056, invitrogen, Carlsbad, Calif., USA)/20 mmol/L Hepes (cat #15630-080, invitrogen, Carlsbad, Calif., USA), Buffer (pH 7.4), F-10 Nutrient Mixture (Ham), and 0.1 mg/mL Geneticin, and the suspension was seeded in a 384-well plate (cat #781090, Greiner, Germany) at 20000 cells/25 μL per well.
On the next day after seeding, Viviren (cat#E649X, Promega, Madison, Wis., USA) was added to the medium so that the final concentration could be 4 μmol/L (15 μL/well). The plates were centrifuged and then placed in the dark for 4 hours at room temperature.
Each of the test compounds was dissolved in DMSO to prepare each test sample at a concentration of 1000-fold the final concentration. To the solution was added Hanks/20 mM HEPES/0.2% BSA (cat#A3803, Sigma, St. Louis, Mo., USA), and the concentration was adjusted to 6-fold the final concentration.
FDSS7000 (Hamamatsu Photonics) was used to detect the luminescence signal evoked by α7 nAChR stimulation. The cells and a luminescent substrate were put on a plate, and the test sample was added thereto. […] After the addition of ACh, the luminescence signal (the central wavelength: 465 nm) was measured for 138 seconds to calculate RLU (Max-Min). The ratio of the RLU (Max-Min) of the test-compound-containing wells to that of the control wells was defined as PAM activity.
For COc1ccc2c(cnn2C2CCN(C(=O)NC3CCCCC3)CC2)c1 [Example 40], the “PAM activity for α7 nAChR” value was “stronger PAM activity than others”.

Same assay, conditions: test compound 10 μmol/L; ACh added at EC20; ratio of RLU (Max-Min) of test wells to control wells
With COC1CCC(NC(=O)N2CCC(n3ncc4c(OC(F)F)cccc43)CC2)CC1 (stereo not drawn) [Example 202] the “α7PAM (%) @ 10 μmol/L” value was 195%.
COCCCc1ccc2c(cnn2C2CCN(C(=O)NC3CCCC3)CC2)c1 [Example 31] was tested, and the “α7PAM (%) @ 10 μmol/L” value was 1191%.
For CCc1ccc2c(c1)c(OC(C)C)nn2C1CCN(C(=O)NC2CCC(OC)CC2)CC1 (stereo not drawn) [Example 59], the “α7PAM (%) @ 10 μmol/L” value was 433%.
For CCc1ccc2c(cnn2C2CCN(C(=O)NC3CCC(F)(F)CC3)CC2)c1OC [Example 256], the “α7PAM (%) @ 10 μmol/L” value was 1668%.
With Cc1ccc2c(c1)c(OC(C)C)nn2C1CCN(C(=O)NC2CCOCC2)CC1 [Example 208] the “α7PAM (%) @ 10 μmol/L” value was 328%.
For CCOc1c(C)ccc2c1cnn2C1CCN(C(=O)NC2CCC(F)(F)CC2)CC1 [Example 269], the “α7PAM (%) @ 10 μmol/L” value was 835%.
COCCCc1ccc2c(cnn2C2CCN(C(=O)N[C@H]3CC[C@H](OC)CC3)CC2)c1 [Example 32] was tested, and the “α7PAM (%) @ 10 μmol/L” value was 430%.
With COc1cccc2c1cnn2C1CCN(C(=O)NC2CCCCC2)CC1 [Example 181] the “α7PAM (%) @ 10 μmol/L” value was 538%.
For CCOc1nn(C2CCN(C(=O)NC3CCC(F)(F)CC3)CC2)c2ccc(CC)cc12 [Example 61], the “α7PAM (%) @ 10 μmol/L” value was 1092%.
For COc1c(Br)ccc2c1cnn2C1CCN(C(=O)NC2CCC(F)(F)CC2)CC1 [Example 284], the “α7PAM (%) @ 10 μmol/L” value was 1109%.
For Cc1cccc2c1cnn2C1CCN(C(=O)NC2CCC(OC(F)F)CC2)CC1 (stereo not drawn) [Example 97], the “α7PAM (%) @ 10 μmol/L” value was 117%.
For COc1ccc2c(cnn2C2CCN(C(=O)NC3CCCC3(F)F)CC2)c1 (stereo not drawn) [Example 87], the “α7PAM (%) @ 10 μmol/L” value was 514%.
With CCc1ccc2c(cnn2C2CCN(C(=O)C3CCC(OC)CC3)CC2)c1 (stereo not drawn) [Example 117] the “α7PAM (%) @ 10 μmol/L” value was 209%.
In the case of CCc1ccc2c(c1)c(OC(C)C)nn2C1CCN(C(=O)NC2CCCCC2)CC1 [Example 153], the “α7PAM (%) @ 10 μmol/L” value is reported as 386%.
In the case of [2H]C([2H])([2H])O[C@H]1CC[C@H](NC(=O)N2CCC(n3ncc4cc(OC5CC5)ccc43)CC2)CC1 [Example 322], the “α7PAM (%) @ 10 μmol/L” value is reported as 639%.
CCc1ccc2c(cnn2C2CCN(C(=O)NC3CCC(OC)CC3)CC2)c1 (stereo not drawn) [Example 92] was tested, and the “α7PAM (%) @ 10 μmol/L” value was 356%.
For [2H]C([2H])([2H])O[C@H]1CC[C@H](NC(=O)N2CCC(n3ncc4c(OC)c(CC)ccc43)CC2)CC1 [Example 318], the “α7PAM (%) @ 10 μmol/L” value was 1084%.
For COCc1c(C2CC2)ccc2c1cnn2C1CCN(C(=O)N[C@H]2CC[C@H](OC)CC2)CC1 [Example 216], the “α7PAM (%) @ 10 μmol/L” value was 271%.
In the case of [2H]C([2H])([2H])c1ccc2c(cnn2C2CCN(C(=O)NC3CCCC3)CC2)c1 [Example 315], the “α7PAM (%) @ 10 μmol/L” value is reported as 825%.
In the case of CCOc1nn(C2CCN(C(=O)NC3CCC(OC)CC3)CC2)c2ccc(CC)cc12 (stereo not drawn) [Example 57], the “α7PAM (%) @ 10 μmol/L” value is reported as 382%.
For CCc1cnc2c(cnn2C2CCN(C(=O)NC3CCC(OC)CC3)CC2)c1 (stereo not drawn) [Example 100], the “α7PAM (%) @ 10 μmol/L” value was 198%.
For CC(C)(C)NC(=O)N1CCC(n2ncc3cc(C4CC4)ccc32)CC1 [Example 172], the “α7PAM (%) @ 10 μmol/L” value was 541%.
With O=C(NC1CCOCC1)N1CCC(n2ncc3cc(Br)ccc32)CC1 [Example 65] the “α7PAM (%) @ 10 μmol/L” value was 385%.
In the case of COCC1CCC(NC(=O)N2CCC(n3ncc4cc(Cl)ccc43)CC2)CC1 (stereo not drawn) [Example 237], the “α7PAM (%) @ 10 μmol/L” value is reported as 832%.
In the case of CCOCc1ccc2c(cnn2C2CCN(C(=O)NC3CCC(F)(F)CC3)CC2)c1 [Example 207], the “α7PAM (%) @ 10 μmol/L” value is reported as 335%.
With COc1ccc(-c2ccc3c(cnn3C3CCN(C(=O)NC4CCC(F)(F)CC4)CC3)c2)cc1 [Example 156] the “α7PAM (%) @ 10 μmol/L” value was 358%.
In the case of Cc1ccc2c(cnn2C2CCN(C(=O)NC3CCCC3)CC2)c1 [Example 7], the “α7PAM (%) @ 10 μmol/L” value is reported as 1044%.
COc1ccc2c(c1)c(C)nn2C1CCN(C(=O)N[C@H]2CC[C@H](OC)CC2)CC1 [Example 242] was tested, and the “α7PAM (%) @ 10 μmol/L” value was 901%.
With COC1CCC(NC(=O)N2CCC(n3ncc4c(C5CC5)cccc43)CC2)CC1 (stereo not drawn) [Example 37] the “α7PAM (%) @ 10 μmol/L” value was 481%.
With COc1ccc2c(c1)c(C1CCOCC1)nn2C1CCN(C(=O)N[C@H]2CC[C@H](OC)CC2)CC1 [Example 262] the “α7PAM (%) @ 10 μmol/L” value was 348%.
With COC1CCC(C(=O)N2CCC(n3ncc4cc(C5CC5)ccc43)CC2)CC1 (stereo not drawn) [Example 141] the “α7PAM (%) @ 10 μmol/L” value was 448%.
In the case of COc1ccc2c(cnn2C2CCN(C(=O)NC3CCCCC3)CC2)c1 [Example 40], the “α7PAM (%) @ 10 μmol/L” value is reported as 3205%.
In the case of COc1ccc2c(cnn2C2CCN(C(=O)N[C@@H]3CCCCC3(F)F)CC2)c1 [Example 85], the “α7PAM (%) @ 10 μmol/L” value is reported as 1081%.
In the case of [2H]C([2H])([2H])O[C@H]1CC[C@H](NC(=O)N2CCC(n3nc(C4CCOCC4)c4cc(C)ccc43)CC2)CC1 [Example 316], the “α7PAM (%) @ 10 μmol/L” value is reported as 807%.
CCc1nn(C2CCN(C(=O)NC3CCOCC3)CC2)c2ccc(C)cc12 [Example 43] was tested, and the “α7PAM (%) @ 10 μmol/L” value was 528%.
In the case of CCc1ccc2c(c1)c(OC)nn2C1CCN(C(=O)NC2CCC(F)(F)CC2)CC1 [Example 149], the “α7PAM (%) @ 10 μmol/L” value is reported as 1053%.
CCc1ccc2c(cnn2[C@H]2CC[C@@H](NC(=O)[C@H]3CC[C@@H](OC)CC3)CC2)c1 [Example 124] was tested, and the “α7PAM (%) @ 10 μmol/L” value was 1230%.
In the case of CCc1c(OC)ccc2c1cnn2C1CCN(C(=O)NC2CCOCC2)CC1 [Example 289], the “α7PAM (%) @ 10 μmol/L” value is reported as 255%.
COc1ccc2c(c1)c(C1=CCOCC1)nn2C1CCN(C(=O)NC2CCC(F)(F)CC2)CC1 [Example 259] was tested, and the “α7PAM (%) @ 10 μmol/L” value was 309%.
In the case of Cc1ccc2c(cnn2C2CCN(C(=O)C3CCCC3)CC2)c1 [Example 106], the “α7PAM (%) @ 10 μmol/L” value is reported as 164%.
With COc1ccc2c(c1)c(C)nn2C1CCN(C(=O)NC2CCC(F)(F)CC2)CC1 [Example 243] the “α7PAM (%) @ 10 μmol/L” value was 842%.
COCc1c(C)ccc2c1cnn2C1CCN(C(=O)N[C@H]2CC[C@H](OC)CC2)CC1 [Example 214] was tested, and the “α7PAM (%) @ 10 μmol/L” value was 207%.
For CCc1c(OC)ccc2c1cnn2C1CCN(C(=O)NC2CCC(F)(F)CC2)CC1 [Example 287], the “α7PAM (%) @ 10 μmol/L” value was 645%.
O=C(NCc1ccc(C(F)(F)F)cc1)N1CCC(n2ncc3cc(C4CC4)ccc32)CC1 [Example 195] was tested, and the “α7PAM (%) @ 10 μmol/L” value was 232%.
With CCc1ccc2c(cnn2[C@H]2CC[C@@H](C(=O)NC3CCCC3)CC2)c1 [Example 128] the “α7PAM (%) @ 10 μmol/L” value was 429%.
With CC(=O)N1CCC(NC(=O)N2CCC(n3ncc4cc(C5CC5)ccc43)CC2)CC1 [Example 203] the “α7PAM (%) @ 10 μmol/L” value was 271%.
[2H]C([2H])([2H])Oc1c(C2CC2)ccc2c1cnn2C1CCN(C(=O)NC2CCOCC2)CC1 [Example 323] was tested, and the “α7PAM (%) @ 10 μmol/L” value was 886%.

Same assay, conditions: test compound 10 μmol/L; ACh added at EC20; ratio of RLU (Max-Min) of test wells to control wells; read-out: α7PAM (%) @ 10 μmol/L
With CO[C@H]1CC[C@H](NC(=O)N2CCC(n3ncc4cc(OC(F)(F)F)ccc43)CC2)CC1 [Example 219, N-(trans-4-methoxycyclohexyl)-4-[5-(trifluoromethoxy)-1H-indazol-1-yl]piperidine-1-carboxamide] the activity at 10 µM was 238%.
COc1c(C2CC2)ccc2c1cnn2C1CCN(C(=O)N[C@H]2CC[C@H](OC)CC2)CC1 [Example 263, 4-(5-cyclopropyl-4-methoxy-1H-indazol-1-yl)-N-(trans-4-methoxycyclohexyl)piperidine-1-carboxamide] gave an activity at 10 µM of 749%.
In the case of CC(C)Cc1ccc2c(cnn2C2CCN(C(=O)C3CCOCC3)CC2)c1 [Example 103, (4-(5-isobutyl-1H-indazol-1-yl)piperidin-1-yl)(tetrahydro-2H-pyran-4-yl)methanone], the activity at 10 µM is reported as 281%.
